Species on record: Rattus norvegicus
Assay: Open TG-GATES - Regimen: Daily Repeat
Format: toxicity, organism-based, Sprague-Dawley
Set-up: regimen Daily Repeat, gender Male, age 6 weeks
Settings: in vivo, po, route gavage; for TP / gamma-GTP / ALP / ALT / AST / BUN / CRE / Ca / Cl / DBIL / GLC / IP / K / LDH / Na / PL / RALB / TBIL / TC / TG: tissue Plasma; for APTT / Bas / Eos / Fbg / Hb / Ht / Lym / MCH / MCV / Mono / Neu / PT / Plat / RBC / Ret / WBC / MCHC: tissue Blood; for KIDNEY_L / KIDNEY_R / KIDNEY_TOTAL: tissue Kidney; for LIVER: tissue Liver
[1] = 100 mg/kg, […], dose level Low, time 28 day
[2] = 300 mg/kg, 72 h, dose level Middle, time 3 day
[3] = 300 mg/kg, […], dose level Middle, time 7 day
[4] = 300 mg/kg, […], dose level Middle, time 14 day
[5] = 300 mg/kg, […], dose level Middle, time 28 day

## CCOc1ccc(NC(C)=O)cc1 [PHENACETIN]
[1]
  TP: 6.4 g/dL
  gamma-GTP: 1 IU/L
[2]
  TERMINAL_BW: 224.3 g
  APTT: 21.5 s
  Bas: 0%
  Eos: 1.2%
  Fbg: 290.8 mg/dL
  Hb: 13.5 g/dL
  Ht: 40.7%
  Lym: 75.2%
  MCH: 19.9 pg
  MCV: 60.1 fL
  Mono: 3.4%
  Neu: 19.4%
  PT: 13.4 s
  Plat: 119.3 x10_4/uL
  RBC: 678.8 x10_4/ul
  Ret: 4.8%
  WBC: 98.2 x10_2/uL
  KIDNEY_L: 1 g
  KIDNEY_R: 1 g
  KIDNEY_TOTAL: 2 g
  LIVER: 11.1 g
  ALP: 1609.6 IU/L
  ALT: 39.2 IU/L
  AST: 66.2 IU/L
  BUN: 13 mg/dL
  CRE: 0.2 mg/dL
  Ca: 11.1 mg/dL
  Cl: 104.8 meq/L
  DBIL: 0.01 mg/dL
  GLC: 166 mg/dL
  IP: 6.9 mg/dL
  K: 4 meq/L
  LDH: 69.4 IU/L
  Na: 143.2 meq/L
  PL: 174.4 mg/dL
  RALB: 2.7 g/dL
  TBIL: 0.044 mg/dL
  TC: 80.4 mg/dL
  TG: 145.4 mg/dL
  TP: 5.7 g/dL
  gamma-GTP: 1 IU/L
[3]
  TERMINAL_BW: 262.8 g
  APTT: 17.4 s
  Bas: 0%
  Eos: 1%
  Fbg: 302.6 mg/dL
  Hb: 13.3 g/dL
  Ht: 40.1%
  Lym: 71.8%
  MCH: 20 pg
  MCV: 60.2 fL
  Mono: 2.8%
  Neu: 24.2%
  PT: 13.3 s
  Plat: 122.3 x10_4/uL
  RBC: 666.2 x10_4/ul
  Ret: 6.7%
  WBC: 103.2 x10_2/uL
  KIDNEY_L: 1.2 g
  KIDNEY_R: 1.1 g
  KIDNEY_TOTAL: 2.3 g
  ALP: 1712.6 IU/L
  ALT: 39.4 IU/L
  AST: 64.6 IU/L
  CRE: 0.2 mg/dL
  Ca: 11 mg/dL
  Cl: 104.2 meq/L
  DBIL: 0.008 mg/dL
  GLC: 177.8 mg/dL
  IP: 6.9 mg/dL
  K: 4.3 meq/L
  LDH: 79.4 IU/L
  PL: 174.4 mg/dL
  RALB: 2.7 g/dL
  TBIL: 0.048 mg/dL
  TC: 81.6 mg/dL
  TG: 149 mg/dL
  TP: 5.9 g/dL
  gamma-GTP: 1.4 IU/L
[4]
  TERMINAL_BW: 306 g
  Bas: 0.2%
  Eos: 1%
  Fbg: 273.2 mg/dL
  Lym: 74.4%
  MCH: 19.9 pg
  MCHC: 33.5%
  MCV: 59.3 fL
  Mono: 2.2%
  Neu: 21.8%
  PT: 13.1 s
  Plat: 125.2 x10_4/uL
  RBC: 696.6 x10_4/ul
  Ret: 6.5%
  WBC: 128 x10_2/uL
  KIDNEY_L: 1.2 g
  KIDNEY_R: 1.2 g
  KIDNEY_TOTAL: 2.5 g
  LIVER: 12.6 g
  ALP: 1577.4 IU/L
  ALT: 37.2 IU/L
  AST: 63 IU/L
  BUN: 14.2 mg/dL
  CRE: 0.2 mg/dL
  Ca: 10.7 mg/dL
  DBIL: 0.02 mg/dL
  GLC: 181.8 mg/dL
  IP: 6.3 mg/dL
  K: 4.3 meq/L
  LDH: 159.2 IU/L
  Na: 144.2 meq/L
  PL: 162.2 mg/dL
  RALB: 2.7 g/dL
  TBIL: 0.086 mg/dL
  TC: 78.4 mg/dL
  TG: 91.2 mg/dL
  TP: 5.9 g/dL
  gamma-GTP: 1 IU/L
[5]
  TERMINAL_BW: 397.8 g
  APTT: 21.1 s
  Bas: 0.2%
  Eos: 1.2%
  Fbg: 262.4 mg/dL
  Hb: 14.4 g/dL
  Ht: 42.5%
  Lym: 76.4%
  MCH: 19.1 pg
  MCHC: 33.8%
  MCV: 56.4 fL
  Mono: 1.8%
  PT: 13.7 s
  Plat: 103.8 x10_4/uL
  RBC: 754.2 x10_4/ul
  Ret: 4.9%
  WBC: 159.4 x10_2/uL
  KIDNEY_L: 1.4 g
  KIDNEY_R: 1.4 g
  KIDNEY_TOTAL: 2.9 g
  ALP: 1081 IU/L
  ALT: 40 IU/L
  AST: 63 IU/L
  BUN: 14.4 mg/dL
  CRE: 0.3 mg/dL
  Cl: 105.6 meq/L
  DBIL: 0.02 mg/dL
  GLC: 175.4 mg/dL
  IP: 5.9 mg/dL
  K: 4.1 meq/L
  LDH: 53.2 IU/L
  Na: 145 meq/L
  PL: 156.2 mg/dL
  RALB: 2.8 g/dL
  TBIL: 0.074 mg/dL
  TC: 70.2 mg/dL
  TG: 122.8 mg/dL
  TP: 6.2 g/dL
  gamma-GTP: 1 IU/L
